Consider four compounds from PMC10718076, “1,2-Disubstituted bicyclo[2.1.1]hexanes as saturated bioisosteres of ortho-substituted benzene” (Chemical Science, 2023).

In general, zone of inhibition refers to the size of the clear area around the sample on an inoculated plate.

Each structure is given as a SMILES string. Values after ≈ are worked out from the molar mass of the structure shown.

In the test the test system is Aspergillus niger (strain VURV-F 822). Kind of test: Antifungal disk diffusion method. The class given is cell-based. The settings on record: for zone of inhibition at 4 µg/mL: Concentration 0.004 mg/mL, Boscalid, Bixafen marked st; for zone of inhibition at 4 µg/mL / zone of inhibition at 8 µg/mL / zone of inhibition at 16 µg/mL / zone of inhibition at 30 µg/mL / zone of inhibition at 60 µg/mL: 0 = absence of antifungal activity; for zone of inhibition at 4 µg/mL / zone of inhibition at 60 µg/mL: Fluxapyroxad; for zone of inhibition at 4 µg/mL / zone of inhibition at 8 µg/mL / zone of inhibition at 16 µg/mL / zone of inhibition at 30 µg/mL / zone of inhibition at 60 µg/mL / zone of inhibition at 120 µg/mL / zone of inhibition at 250 µg/mL / zone of inhibition at 500 µg/mL / zone of inhibition at 1000 µg/mL / zone of inhibition at 2000 µg/mL: read-out: Diameter of inhibition zone; for zone of inhibition at 8 µg/mL: Concentration 0.008 mg/mL; for zone of inhibition at 16 µg/mL: Concentration 0.016 mg/mL; for zone of inhibition at 30 µg/mL: Concentration 0.03 mg/mL; for zone of inhibition at 30 µg/mL / zone of inhibition at 60 µg/mL: (±)-29 marked st; for zone of inhibition at 60 µg/mL: Concentration 0.06 mg/mL, Bixafen; for zone of inhibition at 120 µg/mL: Concentration 0.12 mg/mL, (±)-28 marked st (static growth); for zone of inhibition at 250 µg/mL: Concentration 0.25 mg/mL, (±)-28 marked st (static growth, secondary growth of mycelium); for zone of inhibition at 500 µg/mL: Concentration 0.5 mg/mL; for zone of inhibition at 500 µg/mL / zone of inhibition at 1000 µg/mL / zone of inhibition at 2000 µg/mL: 10 μl per disk; for zone of inhibition at 1000 µg/mL: Concentration 1 mg/mL; for zone of inhibition at 2000 µg/mL: Concentration 2 mg/mL. How it is done:
Antifungal activity of the synthetic compounds using disk diffusion methods The compounds were tested for plant pathogens Aspergillus niger (strain VURV-F 822), which was received from Culture collection of microorganisms of Crop Research Institute (Prague, Czech […]
The synthetic compounds' antifungal activity was evaluated using a disk diffusion assay for testing filamentous fungi (CLSI M51-A) and broth microdilution antifungal susceptibility testing (EUCAST E.DEF 7.3.1; CLSI M38-A2)
[CLSI M51-A. Method for Antifungal Disk Diffusion Susceptibility Testing of Nondermatophyte Filamentous Fungi; Approved Guideline.CLSI document M51-A. Wayne, PA:
Clinical and Laboratory Standards Institute; 2010. This method is standardized for Altenaria, Aspergillus, Bipolaris, Fusarium, order Mucorales, etc.]
[CLSI M38-A2. 2008. Reference method for broth dilution antifungal susceptibility testing of filamentous fungi, 2nd ed Approved standard M38 -A2 Clinical and Laboratory Standards Institute, […]
Antifungal disk diffusion method
The solutions of fungicides and their analogues were diluted in dimethyl sulfoxide (DMSO) to […]
mg/mL for each test component. Sterile paper disks (ASPECT, Ukraine) were soaked with 10 μl of a solution of the appropriate fungicide from the highest concentration to the lowest.
The fungal strains were cultured on Petri dishes with Saburo dextrose agar (Condalab, Spain) and incubated at 25 °C for 5 days. Sterile Dulbecco's phosphate -buffered saline (DPBS) with 0,1 % Tween 20 was used to cover colonies of fungus for obtained conidia l suspension. Suspension of conidia was adjusted to inoculums 2×10^5 conidia/mL by sterile DPBS.
For antifungal disk diffusion test we used square Petri dishes (FALCON A Corning Brand, USA). The conidial suspension (0.5 mL) was added to Petri dishes with Saburo dextrose agar. The suspension was evenly distributed over the surface of the nutrient medium with a glass spatula.
After the surface of the inoculated medium was dry, the disks with different concentrations of testing compounds were added to the Petri dishes. Each compound was tested in triplicate at different concentrations. Growth control was a disk with 10 μl of DMSO, which was used for test […]
Petri dishes incubated at 25 °C for 72 h. The test compounds at known concentrati on into contact with an inoculated medium then exert a growth-inhibiting effect then a clear zone (the zone of […]
inhibition) appears around the test product. The diameter of a clear zone around the well is […]
If the fungal strain is susceptible to the antifungal agent, then a zone of inhibition appears on the agar plate. If it is resistant to the test compound, then no zone is evident. The size of the zone of inhibition is usually related to the level of antifungal activity present in the compound – a larger […]
The growth rate of all strains for each concentration of test compounds was determined visually and compared with the growth of control.
Broth microdilution antifungal susceptibility testing
A 96-well CELLSTAR plate (sterile, flat-bottomed, polystyrene, transparent) was used to determine MIC by broth microdilution method. Also, dabble straight RPMI-1640 medium with 2% glucose (2x RPMI 2%G) was used for this method. Spore suspension for plate inoculation was prepared according to the method described above for the disc diffusion method.
The each well in the plate contained 49 μl of medium (2x RPMI 2%G), 50 μl of inoculum (prepared in DPBS) and 1 μl of the stock solution of the test substance. Positive control wells contained 50 μl medium and 50 μl inoculum, and sterile control wells contained 50 μl medium and […]
To determine the MIC by the microdilution method, a series of stock solutions of fungicides and their analogues in DMSO with the following concentrations were prepared: 3.2 mg/mL, 1.6 mg/mL, […]
1 μl of the stock solutions of the test substances were added to each well to obtain the following […]
Immediately after adding all the components to the plates, the optical density was measured at […]

Regarding `Cn1cc(C(=O)NC2CC3CC2(c2ccc(Cl)c(Cl)c2)C3)c(C(F)F)n1` (centres unmarked) [Compound 29], the zone of inhibition at 4 µg/mL was 0 mm, the zone of inhibition at 8 µg/mL was 0 mm, the zone of inhibition at 16 µg/mL came to 0 mm and the zone of inhibition at 30 µg/mL worked out at 3.5 ± 0.5 mm. Also, the zone of inhibition at 60 µg/mL was found to be 6.5 ± 1 mm, the zone of inhibition at 120 µg/mL was determined as 8.75 ± 1.25 mm, the zone of inhibition at 250 µg/mL turned out to be 12 ± 0.5 mm and the zone of inhibition at 500 µg/mL turned out to be 12.5 ± 1.5 mm. In addition, the zone of inhibition at 1000 µg/mL turned out to be 16.2 ± 1.25 mm and the zone of inhibition at 2000 µg/mL came to 23.5 ± 2 mm.

In the case of `Cn1cc(C(=O)Nc2ccc(F)cc2-c2ccc(Cl)c(Cl)c2)c(C(F)F)n1` [Bixafen, bixafen], the zone of inhibition at 4 µg/mL is 9 ± 2 mm, the zone of inhibition at 8 µg/mL was 15.8 ± 1.25 mm, the zone of inhibition at 16 µg/mL turned out to be 14.5 ± 1 mm and the zone of inhibition at 30 µg/mL worked out at 20.2 ± 2.25 mm. The zone of inhibition at 60 µg/mL was 20.5 ± 1.75 mm, the zone of inhibition at 120 µg/mL came out at 27 ± 1 mm, the zone of inhibition at 250 µg/mL amounted to 32 ± 2.5 mm and the zone of inhibition at 500 µg/mL came to 32.8 ± 1.75 mm. For the same compound, the zone of inhibition at 1000 µg/mL stood at 35.2 ± 1.4 mm and the zone of inhibition at 2000 µg/mL worked out at 38 ± 1 mm. Moreover, under “disk diffusion, small zones of inhibition with secondary mycelial growth, read-out: minimum inhibitory concentration”, the MIC was found to be 4 µg/mL (≈ 9.66 µM).

Turning to `O=C(NC1CC2CC1(c1ccc(Cl)cc1)C2)c1cccnc1Cl` (centres unmarked) [Compound 28], the zone of inhibition at 4 µg/mL came to 0 mm, the zone of inhibition at 8 µg/mL worked out at 0 mm, the zone of inhibition at 16 µg/mL was found to be 0 mm and the zone of inhibition at 30 µg/mL amounted to 0 mm. The zone of inhibition at 60 µg/mL stood at 0 mm, the zone of inhibition at 120 µg/mL amounted to 9 ± 0.5 mm, the zone of inhibition at 250 µg/mL came to 7.5 ± 0.5 mm and the zone of inhibition at 500 µg/mL turned out to be 10.5 ± 1.5 mm. For the same compound, the zone of inhibition at 1000 µg/mL was found to be 13.8 ± 0.88 mm and the zone of inhibition at 2000 µg/mL worked out at 15.5 ± 0.5 mm.

In the case of `Cn1cc(C(=O)NC2CC3CC2(c2cc(F)c(F)c(F)c2)C3)c(C(F)F)n1` (centres unmarked) [Compound 30], the zone of inhibition at 4 µg/mL came out at 0 mm, the zone of inhibition at 8 µg/mL was 0 mm, the zone of inhibition at 16 µg/mL amounted to 0 mm and the zone of inhibition at 30 µg/mL stood at 0 mm. The zone of inhibition at 60 µg/mL is 0 mm, the zone of inhibition at 120 µg/mL was found to be 10 ± 0.5 mm, the zone of inhibition at 250 µg/mL was determined as 8.5 ± 1 mm and the zone of inhibition at 500 µg/mL turned out to be 13.8 ± 0.75 mm. Further, the zone of inhibition at 1000 µg/mL amounted to 20.5 ± 1 mm and the zone of inhibition at 2000 µg/mL was 24.2 ± 0.75 mm.
